Laboratory results as given in patent US11505526B2, “Aryl-piperidine derivatives” (Artax Biopharma Inc., priority 2017, dated 2022).
Like-named read-outs stand apart in the source and are kept apart here.

Tests used:
[1] = Microsomal stability, human liver microsomes; type: in vitro ADME; settings: 0.5 mg/mL protein, read-out: Microsomal stability (T1/2 min) Human
Method: (§1) Intrinsic clearance studies are performed individually with mouse, rat and human liver microsomes at 0.5 mg/mL protein concentration. Briefly, for protein concentration 0.5 mg/mL assay, liver microsomal protein (12.5 uL), NAPDH (50 uL) and phosphate buffer (435 uL) are co-incubated (pre-incubation) in a 96-well deep well plate in an orbital incubator (10 min, 37° C.). Reactions are initiated by the addition of 2.5 uL of test item working stock solution (100 uM). Aliquots (50 uL) are withdrawn from the reaction tube at 0, 5, 10, 20 and 30 minutes and the reaction is immediately terminated by transferring to a 96 deep well plate containing 50 uL of acetonitrile. Verapamil is used as a positive control in mouse, rat and human liver microsomes. To the quenched samples internal standard is added and vortex mixed followed by centrifugation at 4000 rpm for 10 minutes and an aliquot of supernatant is taken for LC-MS/MS analysis. Samples are analyzed by a suitable fit-for-purpose multiple reaction monitoring method developed on LC-MS/MS using and API 4000 mass spectrometer to estimate the area ratio (analyte peak area/internal standard peak area).

CYP2C9 = CYP2C9 (Homo sapiens (Human), UniProt P11712); experiment: CYP inhibition, CYP2C9; type: in vitro ADME; settings: microsomes, metabolite 4-hydroxy diclofenac
Method: (§2) For each isozyme, microsomes-buffer-substrate mixture (MBS mix) is prepared by premixing appropriate volumes of buffer, microsomes and substrate. MBS mixture (179 μL) is transferred to a 96-well reaction plate. An aliquot (1 μL) is spiked from corresponding wells of Test Item stock solution plate to reaction plate. The reaction plate is pre-incubated for 5 minutes at 37° C. Reaction is initiated by the addition of 20 μL of NADPH solution. Each experiment is performed in duplicate. Reaction plate is incubated for predetermined time at 37° C. and quenched using either 200 μL of acetonitrile (for CYP2C9, CYP2D6, CYP2C19 and CYP3A4) or 200 μL of a mixture of 70:30 1% formic acid:acetonitrile (for CYP1A2).

[2] = Microsomal stability, rat liver microsomes; type: in vitro ADME; settings: 0.5 mg/mL protein, read-out: Microsomal stability (T1/2 min) Rat
Method: as §1

CYP2D6 = CYP2D6 (Homo sapiens (Human), UniProt P10635); experiment: CYP inhibition, CYP2D6; type: in vitro ADME; settings: microsomes, metabolite dextrorphan
Method: as §2

CYP1A2 = CYP1A2 (Homo sapiens (Human), UniProt P05177); experiment: CYP inhibition, CYP1A2; type: in vitro ADME; settings: microsomes, metabolite acetaminophen
Method: as §2

CYP2C19 = CYP2C19 (Homo sapiens (Human), UniProt P33261); experiment: CYP inhibition, CYP2C19; type: in vitro ADME; settings: microsomes, metabolite 4′-hydroxy mephenytoin
Method: as §2

hERG (IKr current) = hERG (IKr current) (Homo sapiens (Human), UniProt Q12809); experiment: hERG inhibition, patch clamp (Port-a-Patch) on HEK cells stably transfected with the hERG clone, IKr current; type: cell-based; settings: human, HEK cells stably transfected with the hERG clone, pH 7.4, IKr current
Method: (§3) HEK cells stably transfected with the hERG clone are maintained at 37±2° C. in a 5% CO2 incubator. The cells are initially revived and grown in DMEM/F12+GlutaMAX-I medium supplemented with 9% fetal bovine serum (FBS) and antibiotics (Penicillin 100 IU/mL Streptomycin 100 μg/mL) (complete medium). Furthermore, the cells are continuously maintained and passaged in complete media in addition to the appropriate concentration of selection antibiotic (Geneticin (G418) 200 μg/mL) (Selection media). The cells are sub cultured every 2-3 days and medium is changed with complete medium at least a day before the experiment.
(§4) The cells are harvested on the day of experiment, dislodged and suspended in sterile filtered external solution (NaCl 140 mM, KCl 4 mM, MgCl2 1 mM, CaCl2 2 mM, D-Glucose monohydrate 5 mM, Hepes/NaOH 10 mM, pH 7.4, Osmolarity:298+/−5 mOsmol).
(§5) The NPC®-1 chip of the Port-a-Patch® is filled with 5 μL of internal solution (KCl 50 mM, NaCl 10 mM, KFl 60 mM, EGTA 20 mM, Hepes/KOH 10 mM, pH 7.2, Osmolarity: 285+/−5 mOsmol) and it is screwed onto the chip holder. The Faraday cage is then fixed on the chip holder, such that the external electrode is placed near to the chip aperture. 5 μL of external solution is added to the center of the aperture so that the external electrode is also in contact with the solution.
(§6) The experiment is be initiated. […] The suction automatically attracts a cell to the aperture, resulting in an increase in the chip resistance. When the cell is captured and the set threshold for the resistance is reached, the software recognizes this increase in resistance and proceeds to the next step of the sealing procedure. 20 μL of seal enhancer solution (NaCl 80 mM, KCl 4 mM, MgCl2 10 mM, CaCl2) 35 mM, Hepes (Na+salt)/HCl pH 7.4, Osmolarity: 298+/−5 mOsmol) is added 2-3 times. When the threshold resistance is reached, Patch Control automatically moves to the step of improving the seal. When the desirable resistance (Rpip) is reached, whole cell mode is attained and maintained.
(§7) Finally, hERG protocol is selected to run the experiment. The seal enhancer solution is replaced with 20 μL external solution after 2-4 rinses and then the test item is added (from lower to higher concentration) and checked for current inhibition. All the experiments are performed at ambient temperature (22-25° C.).
(§8) A schematic diagram (FIG. 3) of the Pulse protocol: Cells are stimulated every 10 seconds using the following protocol. The holding potential, sweep intervals and the depolarization/repolarization potentials are furnished in the table below.
(§9) Once the stable current is attained (at least 2-5 minutes) vehicle control is added and the current measured till the stable current is achieved. 3-5 consecutive data points from the last stable current phase are considered for further analysis. […] The system performs on-line analysis for several parameters which include functions that acquire data from traces and functions that perform calculations on the results of other functions.

hERG = hERG (Homo sapiens (Human), UniProt Q12809); experiment: as above; type: cell-based; settings: concentrations tested 1, 3, 10 and 30 μM
Method: as §3, §4, §5, §6, §7, §8, §9

CYP3A4 = CYP3A4 (Homo sapiens (Human), UniProt P08684); experiment: CYP inhibition, CYP3A4; type: in vitro ADME; settings: footnote not given, CYP3A4 metabolites monitored: 1-hydroxy midazolam, 6-β-hydroxy testosterone
Method: as §2

[3] = Microsomal stability, mouse liver microsomes; type: in vitro ADME; settings: 0.5 mg/mL protein, read-out: Microsomal stability (T1/2 min) Mouse
Method: as §1

[4] = read-out: Percent Inhibition Mean (%)
[5] = read-out: Percent Inhibition Trial I
[6] = read-out: Percent Inhibition Trial II
[7] = CYP3A4^a, read-out: CYP IC50 uM CYP3A4^a

Chain of CYP2D6 (P10635 whole entry): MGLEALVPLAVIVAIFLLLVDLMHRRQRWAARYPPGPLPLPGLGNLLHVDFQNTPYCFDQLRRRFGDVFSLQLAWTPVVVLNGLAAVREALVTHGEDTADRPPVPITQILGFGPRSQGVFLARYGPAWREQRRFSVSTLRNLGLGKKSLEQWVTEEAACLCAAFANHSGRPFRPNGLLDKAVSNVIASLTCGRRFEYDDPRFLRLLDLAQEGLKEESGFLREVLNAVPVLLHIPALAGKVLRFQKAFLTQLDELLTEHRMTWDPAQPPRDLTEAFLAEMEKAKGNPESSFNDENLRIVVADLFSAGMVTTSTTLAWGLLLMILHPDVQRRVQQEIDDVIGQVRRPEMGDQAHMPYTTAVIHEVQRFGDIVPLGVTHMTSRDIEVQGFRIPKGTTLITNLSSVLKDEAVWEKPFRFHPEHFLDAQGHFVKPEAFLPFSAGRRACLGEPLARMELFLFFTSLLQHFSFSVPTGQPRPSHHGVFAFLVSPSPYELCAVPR
Chain of CYP2C9 (P11712 whole entry): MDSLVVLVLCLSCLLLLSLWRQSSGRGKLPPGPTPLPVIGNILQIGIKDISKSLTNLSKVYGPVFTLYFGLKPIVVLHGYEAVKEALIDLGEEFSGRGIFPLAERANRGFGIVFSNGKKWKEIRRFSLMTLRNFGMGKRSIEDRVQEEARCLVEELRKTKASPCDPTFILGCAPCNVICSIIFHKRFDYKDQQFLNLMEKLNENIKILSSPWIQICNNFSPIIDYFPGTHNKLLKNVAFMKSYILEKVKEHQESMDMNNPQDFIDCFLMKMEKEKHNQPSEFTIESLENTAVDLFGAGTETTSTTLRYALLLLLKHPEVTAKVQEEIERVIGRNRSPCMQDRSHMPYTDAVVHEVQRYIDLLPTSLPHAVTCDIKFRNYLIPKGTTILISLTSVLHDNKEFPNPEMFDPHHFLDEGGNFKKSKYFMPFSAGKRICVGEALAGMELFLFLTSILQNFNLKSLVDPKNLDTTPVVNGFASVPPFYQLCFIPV
Chain of hERG (Q12809 whole entry): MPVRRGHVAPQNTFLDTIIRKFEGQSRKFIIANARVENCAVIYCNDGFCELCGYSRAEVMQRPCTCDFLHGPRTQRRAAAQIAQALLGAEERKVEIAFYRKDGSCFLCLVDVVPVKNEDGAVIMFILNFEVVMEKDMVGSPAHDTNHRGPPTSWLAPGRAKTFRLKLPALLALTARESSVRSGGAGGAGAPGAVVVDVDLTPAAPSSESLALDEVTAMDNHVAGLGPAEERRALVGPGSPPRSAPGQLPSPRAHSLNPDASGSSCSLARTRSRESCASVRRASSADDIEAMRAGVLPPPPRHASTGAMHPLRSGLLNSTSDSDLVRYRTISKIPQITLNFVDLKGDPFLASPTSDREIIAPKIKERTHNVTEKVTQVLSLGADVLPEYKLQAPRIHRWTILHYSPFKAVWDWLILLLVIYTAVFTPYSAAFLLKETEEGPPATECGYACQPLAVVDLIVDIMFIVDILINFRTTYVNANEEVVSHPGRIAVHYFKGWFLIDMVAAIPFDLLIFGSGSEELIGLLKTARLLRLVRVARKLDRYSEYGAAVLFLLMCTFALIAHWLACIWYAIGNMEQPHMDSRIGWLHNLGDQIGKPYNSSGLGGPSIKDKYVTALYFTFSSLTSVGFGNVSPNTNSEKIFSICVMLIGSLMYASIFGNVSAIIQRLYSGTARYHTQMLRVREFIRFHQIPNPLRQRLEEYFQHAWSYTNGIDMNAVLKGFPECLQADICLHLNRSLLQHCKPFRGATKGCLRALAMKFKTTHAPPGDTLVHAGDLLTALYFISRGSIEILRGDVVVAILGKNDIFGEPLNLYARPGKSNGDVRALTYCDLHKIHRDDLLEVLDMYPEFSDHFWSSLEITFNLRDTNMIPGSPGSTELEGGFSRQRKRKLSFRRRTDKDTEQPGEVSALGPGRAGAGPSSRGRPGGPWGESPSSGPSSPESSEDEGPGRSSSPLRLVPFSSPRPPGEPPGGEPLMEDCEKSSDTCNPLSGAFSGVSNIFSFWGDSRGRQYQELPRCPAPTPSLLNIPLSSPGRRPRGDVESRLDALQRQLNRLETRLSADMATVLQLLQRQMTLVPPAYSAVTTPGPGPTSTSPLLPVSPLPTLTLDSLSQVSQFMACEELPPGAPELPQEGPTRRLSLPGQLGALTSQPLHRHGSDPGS
Chain of hERG (IKr current) (Q12809 whole entry): as above
Chain of CYP1A2 (P05177 whole entry): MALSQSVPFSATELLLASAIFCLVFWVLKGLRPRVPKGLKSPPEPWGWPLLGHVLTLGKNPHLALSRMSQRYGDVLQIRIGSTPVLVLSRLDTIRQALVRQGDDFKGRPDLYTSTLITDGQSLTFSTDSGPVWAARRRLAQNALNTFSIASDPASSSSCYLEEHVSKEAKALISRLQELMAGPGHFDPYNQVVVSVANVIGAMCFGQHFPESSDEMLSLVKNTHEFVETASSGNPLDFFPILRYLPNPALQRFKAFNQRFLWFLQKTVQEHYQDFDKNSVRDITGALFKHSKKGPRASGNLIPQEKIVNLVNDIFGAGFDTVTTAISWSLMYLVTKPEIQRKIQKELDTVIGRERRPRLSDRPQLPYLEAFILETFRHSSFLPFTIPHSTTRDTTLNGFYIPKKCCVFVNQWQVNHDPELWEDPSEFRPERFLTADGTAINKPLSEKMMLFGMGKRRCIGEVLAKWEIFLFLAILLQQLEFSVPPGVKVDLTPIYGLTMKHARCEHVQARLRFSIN
Chain of CYP3A4 (P08684 whole entry): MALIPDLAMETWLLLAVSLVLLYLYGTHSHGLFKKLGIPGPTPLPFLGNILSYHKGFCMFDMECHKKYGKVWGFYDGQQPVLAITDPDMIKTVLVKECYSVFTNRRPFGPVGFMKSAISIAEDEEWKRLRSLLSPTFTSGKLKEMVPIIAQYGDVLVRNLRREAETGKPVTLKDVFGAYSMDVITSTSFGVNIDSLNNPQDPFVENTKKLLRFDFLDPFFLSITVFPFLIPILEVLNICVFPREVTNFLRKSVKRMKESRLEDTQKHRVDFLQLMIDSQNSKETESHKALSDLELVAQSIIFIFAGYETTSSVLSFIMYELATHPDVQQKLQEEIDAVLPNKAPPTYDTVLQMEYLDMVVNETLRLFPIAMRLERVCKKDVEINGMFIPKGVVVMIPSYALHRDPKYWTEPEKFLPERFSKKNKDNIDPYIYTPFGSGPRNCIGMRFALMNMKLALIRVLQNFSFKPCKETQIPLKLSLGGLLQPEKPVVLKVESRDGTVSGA
Chain of CYP2C19 (P33261 whole entry): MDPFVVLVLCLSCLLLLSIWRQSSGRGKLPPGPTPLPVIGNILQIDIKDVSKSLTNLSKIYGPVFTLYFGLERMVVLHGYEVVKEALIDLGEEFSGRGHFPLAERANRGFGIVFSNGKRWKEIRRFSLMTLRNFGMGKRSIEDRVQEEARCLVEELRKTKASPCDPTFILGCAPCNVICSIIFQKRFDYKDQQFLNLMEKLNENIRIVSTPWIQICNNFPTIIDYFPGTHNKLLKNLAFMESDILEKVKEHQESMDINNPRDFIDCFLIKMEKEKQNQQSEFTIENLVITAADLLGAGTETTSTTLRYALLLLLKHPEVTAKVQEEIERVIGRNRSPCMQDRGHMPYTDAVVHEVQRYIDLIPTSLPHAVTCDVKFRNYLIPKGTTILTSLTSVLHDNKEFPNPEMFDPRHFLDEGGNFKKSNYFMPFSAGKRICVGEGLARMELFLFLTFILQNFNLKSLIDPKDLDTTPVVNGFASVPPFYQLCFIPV

| SMILES | half-life at 0.5 µM [1] [min] | IC50 (CYP2C9) [µM] | half-life at 0.5 µM [2] [min] | IC50 (CYP2D6) [µM] | IC50 (CYP1A2) [µM] | IC50 (CYP2C19) [µM] | inhibition at 1 µM (hERG (IKr current); [4]) [%] | inhibition at 1 µM (hERG (IKr current); [5]) [%] | inhibition at 1 µM (hERG (IKr current); [6]) [%] | inhibition at 3 µM (hERG (IKr current); [4]) [%] | inhibition at 3 µM (hERG (IKr current); [5]) [%] | inhibition at 3 µM (hERG (IKr current); [6]) [%] | inhibition at 10 µM (hERG (IKr current); [4]) [%] | inhibition at 10 µM (hERG (IKr current); [5]) [%] | inhibition at 10 µM (hERG (IKr current); [6]) [%] | inhibition at 30 µM (hERG (IKr current); [4]) [%] | inhibition at 30 µM (hERG (IKr current); [5]) [%] | inhibition at 30 µM (hERG (IKr current); [6]) [%] | IC50 (hERG) [µM] | IC50 (CYP3A4; [7]) [µM] | other results |
| --- | --- | --- | --- | --- | --- | --- | --- | --- | --- | --- | --- | --- | --- | --- | --- | --- | --- | --- | --- | --- | --- |
| O=C(c1ccc(Cl)cc1)C1CCCN(C(=O)c2ccccc2)C1 (stereo not drawn) [Compound V-4] | 10 to 30 | 5 to 20 | < 10 | ≤ 5 | ≤ 5 | ≤ 5 | 13.2 | 16.2 | 10.2 | 18.8 | 20.5 | 17 | 23.1 | 26.4 | 19.8 | 39.1 | 39.5 | 38.7 | 76 | > 50 | IC50 (CYP3A4; read-out: CYP IC50 uM CYP3A4^b): 20 to 50 µM; half-life at 0.5 µM [3]: < 10 min |
| O=C(c1ccncc1)C1CCCN(Cc2ccccc2)C1 (stereo not drawn) [IV-6] | 10 to 30 | 5 to 20 | < 10 | ≤ 5 | 20 to 50 | ≤ 5 | 2.37 | 0 | 4.74 | 0 | 0 | 0 | 10.2 | 7.16 | 13.1 | 35.5 | 39.9 | 31.1 | 44.6 | ≤ 5 | IC50 (CYP3A4; read-out: CYP IC50 uM CYP3A4^b): 5 to 20 µM; half-life at 0.5 µM [3]: < 10 min |
| O=C(c1ncccn1)C1CCCN(Cc2ccccc2)C1 (stereo not drawn) [IV-7] | ≥ 30 | > 50 | 10 to 30 | 5 to 20 | > 50 | > 50 | 0 | 0 | 0 | 0.73 | 1.46 | 0 | 1.99 | 3.44 | 0.54 | 21.6 | 17.2 | 25.9 | 73.2 | > 50 | IC50 (CYP3A4; read-out: CYP IC50 uM CYP3A4^b): > 50 µM; half-life at 0.5 µM [3]: ≥ 30 min |
